Assay results reported in ChEMBL document CHEMBL3120136 (J Med Chem, 2014).
*1 amine or outer side, *2 acyl side, *3 side chain or, on linkers, in order; H or OH if unused. Where a SMILES comes first, the peptide text is derived from it. Side-chain parts run from the residue outwards. [ ]: non-standard residue; d: D form. The star is where a group is joined. Tetrahydroisoquinolin(2-yl) = c1ccc2c(c1)CCN(*)C2; Ac3c(1R,2S-2-vinyl) = C=C[C@@H]1C[C@]1(N)C(=O)O; Hyp = O=C(O)[C@@H]1C[C@@H](O)CN1; Chg = N[C@H](C(=O)O)C1CCCCC1; CO = O=C([*:1])[*:2]; Carbamoyl = NC(=O)*

Experiments:
[1] = Inhibition of Hepatitis C virus full-length NS3/4A protease assessed as quenched-fluorogenic RET-S1 substrate cleavage incubated for 10 mins prior to substrate addition by FRET analysis; parameters: species or system Hepacivirus hominis
[2] = tested on: Hepatitis C virus; assay: Antiviral activity against Hepatitis C virus infected in human HuH7 cells assessed as inhibition of HCV subgenomic replicon replication after 72 hrs by ELISA; assay type: functional, organism-based, Hepacivirus hominis, Huh-7; settings: Hepatitis C virus, Huh-7, 72 h; read-out: EC50

IC50 [1] [µM]	EC50 [2] [µM]	SMILES
0.038	3.22	CC(C)(C)OC(=O)N[C@H]1CCCCC/C=C\[C@@H]2C[C@@]2(C(=O)O)NC(=O)[C@@H]2C[C@@H](OC(=O)N3Cc4ccc(F)cc4C3)CN2C1=O
0.003	0.005	CCCC1(S(=O)(=O)NC(=O)[C@@]23C[C@H]2/C=C\CCCCC[C@H](NC(=O)OC(C)(C)C)C(=O)N2C[C@H](OC(=O)N4Cc5ccccc5C4)C[C@H]2C(=O)N3)CC1
0.0012	0.024	CC(C)(C)OC(=O)N[C@H]1CCCCC/C=C\[C@@H]2C[C@@]2(C(=O)NS(=O)(=O)C2CC2)NC(=O)[C@@H]2C[C@@H](OC(=O)N3CCc4c(F)ccc(F)c4C3)CN2C1=O
0.0007	0.026	O=C(NC1CCCC1)N[C@H]1CCCCC/C=C\[C@@H]2C[C@@]2(C(=O)NS(=O)(=O)C2CC2)NC(=O)[C@@H]2C[C@@H](OC(=O)N3Cc4ccccc4C3)CN2C1=O
0.47	> 10	CC(C)(C)OC(=O)N[C@H]1CCCCC/C=C\[C@@H]2C[C@@]2(C(=O)NS(=O)(=O)C2CC2)NC(=O)[C@@H]2C[C@@H](NS(=O)(=O)c3cccc4ccccc34)CN2C1=O
0.0022	0.217	O=C(N[C@H]1CCCCC/C=C\[C@@H]2C[C@@]2(C(=O)NS(=O)(=O)C2CC2)NC(=O)[C@@H]2C[C@@H](OC(=O)N3Cc4ccccc4C3)CN2C1=O)O[C@H]1CCOC1
0.0052	0.126	CC(C)(C)OC(=O)N[C@H]1CCCCC/C=C\[C@@H]2C[C@@]2(C(=O)NS(=O)(=O)C2CC2)NC(=O)[C@@H]2C[C@@H](NC(=O)c3nc4cc(Cl)ccc4s3)CN2C1=O
0.0046	0.111	CC(C)(C)OC(=O)N[C@H]1CCCCC/C=C\[C@@H]2C[C@@]2(C(=O)NS(=O)(=O)c2ccc(Cl)s2)NC(=O)[C@@H]2C[C@@H](OC(=O)N3Cc4ccccc4C3)CN2C1=O
0.21	> 10	C=C[C@@H]1C[C@]1(NC(=O)[C@@H]1C[C@@H](OC(=O)N2CCc3ccccc3C2)CN1C(=O)[C@@H](NC(=O)[C@@H](NC(C)=O)C1CCCCC1)C(C)C)C(=O)O (Ac-[Chg]V[Hyp]([CO-Tetrahydroisoquinolin(2-yl)])[Ac3c(1R,2S-2-vinyl)]-OH)
0.0012	0.029	CC(C)(C)OC(=O)N[C@H]1CCCCC/C=C\[C@@H]2C[C@@]2(C(=O)NS(=O)(=O)C2CC2)NC(=O)[C@@H]2C[C@@H](OC(=O)N3Cc4cccc(C(F)(F)F)c4C3)CN2C1=O
0.0012	0.033	CC(C)(C)OC(=O)N[C@H]1CCOCC/C=C\[C@@H]2C[C@@]2(C(=O)NS(=O)(=O)C2CC2)NC(=O)[C@@H]2C[C@@H](OC(=O)N3Cc4cccc(F)c4C3)CN2C1=O
0.22	6.3	CO[C@@H]1C[C@H]2C(=O)N[C@]3(C(=O)NS(=O)(=O)C4CC4)C[C@H]3/C=C\CCCCC[C@H](NC(=O)OC(C)(C)C)C(=O)N2C1
0.0024	0.038	CC(C)(C)NC(=O)N[C@H]1CCCCC/C=C\[C@@H]2C[C@@]2(C(=O)NS(=O)(=O)C2CC2)NC(=O)[C@@H]2C[C@@H](OC(=O)N3Cc4ccccc4C3)CN2C1=O
0.0014	0.021	CC(C)(C)OC(=O)N[C@H]1CCCCC/C=C\[C@@H]2C[C@@]2(C(=O)NS(=O)(=O)C2CC2)NC(=O)[C@@H]2C[C@@H](NC(=O)c3cc4ccccc4s3)CN2C1=O
0.021	0.02	CC(C)(C)OC(=O)N[C@H]1CCCCC/C=C\[C@@H]2C[C@@]2(C(=O)NS(=O)(=O)C2CC2)NC(=O)[C@@H]2C[C@@H](OC(=O)N3Cc4ccc(C(F)(F)F)cc4C3)CN2C1=O
0.0018	0.0702	CC(C)(C)OC(=O)N[C@H]1COCCC/C=C\[C@@H]2C[C@@]2(C(=O)NS(=O)(=O)C2CC2)NC(=O)[C@@H]2C[C@@H](OC(=O)N3Cc4cccc(F)c4C3)CN2C1=O
0.001	0.004	O=C(N[C@H]1CCCCC/C=C\[C@@H]2C[C@@]2(C(=O)NS(=O)(=O)C2CC2)NC(=O)[C@@H]2C[C@@H](OC(=O)N3Cc4ccccc4C3)CN2C1=O)OC1CCCC1
0.022	0.509	CC(C)(C)OC(=O)N[C@H]1CCCCC/C=C\[C@@H]2C[C@@]2(C(=O)NS(=O)(=O)N2CCNCC2)NC(=O)[C@@H]2C[C@@H](OC(=O)N3Cc4ccccc4C3)CN2C1=O
0.012	3.91	CC(=O)O[C@@H]1C[C@H]2C(=O)N[C@]3(C(=O)NS(=O)(=O)C4CC4)C[C@H]3/C=C\CCCCC[C@H](NC(=O)OC(C)(C)C)C(=O)N2C1
0.02	3.05	N[C@H]1CCCCC/C=C\[C@@H]2C[C@@]2(C(=O)NS(=O)(=O)C2CC2)NC(=O)[C@@H]2C[C@@H](OC(=O)N3Cc4cccc(F)c4C3)CN2C1=O
0.002	0.0092	CC(C)(C)OC(=O)N[C@H]1CCCCC/C=C\[C@@H]2C[C@@]2(C(=O)NS(=O)(=O)C2CC2)NC(=O)[C@@H]2C[C@@H](OC(=O)N3Cc4ccc(Cl)cc4C3)CN2C1=O

IC50 [1] [µM]	EC50 [2] [µM]	SMILES
0.0024	0.0065	CC(C)(C)OC(=O)N[C@H]1CCCCC/C=C\[C@@H]2C[C@@]2(C(=O)NS(=O)(=O)N2CCC2)NC(=O)[C@@H]2C[C@@H](OC(=O)N3Cc4ccccc4C3)CN2C1=O
0.0022	0.097	O=C(N[C@H]1CCCCC/C=C\[C@@H]2C[C@@]2(C(=O)NS(=O)(=O)C2CC2)NC(=O)[C@@H]2C[C@@H](OC(=O)N3Cc4ccccc4C3)CN2C1=O)OC1CCOCC1
0.0082	0.365	CC(C)(C)OC(=O)N[C@H]1CCCCC/C=C\[C@@H]2C[C@@]2(C(=O)NS(=O)(=O)C2CC2)NC(=O)[C@@H]2C[C@@H](NC(=S)N3CCc4ccccc4C3)CN2C1=O
0.0022	0.718	CC(C)(C)OC(=O)N[C@H]1CCCCC/C=C\[C@@H]2C[C@@]2(C(=O)NS(=O)(=O)C2CC2)NC(=O)[C@@H]2C[C@@H](OC(=O)N3Cc4ccccc4C(O)C3)CN2C1=O (some centres undefined)
0.001	0.0057	CC1CN(C(=O)O[C@@H]2C[C@H]3C(=O)N[C@]4(C(=O)NS(=O)(=O)C5CC5)C[C@H]4/C=C\CCCCC[C@H](NC(=O)OC(C)(C)C)C(=O)N3C2)Cc2ccccc21 (some centres undefined)
0.0048	0.021	CC(C)S(=O)(=O)NC(=O)[C@@]12C[C@H]1/C=C\CCCCC[C@H](NC(=O)OC(C)(C)C)C(=O)N1C[C@H](OC(=O)N3Cc4ccccc4C3)C[C@H]1C(=O)N2
0.0035	0.011	CC(C)(C)OC(=O)N[C@H]1CCCCC/C=C\[C@@H]2C[C@@]2(C(=O)NS(=O)(=O)c2ccccc2)NC(=O)[C@@H]2C[C@@H](OC(=O)N3Cc4ccccc4C3)CN2C1=O
0.0016	0.025	CC(C)(C)OC(=O)N[C@H]1CCCCC/C=C\[C@@H]2C[C@@]2(C(=O)NS(=O)(=O)C2(Cc3ccccc3)CC2)NC(=O)[C@@H]2C[C@@H](OC(=O)N3Cc4ccccc4C3)CN2C1=O
0.07	0.139	CC(C)N(C(C)C)S(=O)(=O)NC(=O)[C@@]12C[C@H]1/C=C\CCCCC[C@H](NC(=O)OC(C)(C)C)C(=O)N1C[C@H](OC(=O)N3Cc4ccccc4C3)C[C@H]1C(=O)N2
0.0035	0.013	CC(C)(C)OC(=O)N[C@H]1CCCCC/C=C\[C@@H]2C[C@@]2(C(=O)NS(=O)(=O)C2CC2)NC(=O)[C@@H]2C[C@@H](NC(=O)c3nc4ccccc4s3)CN2C1=O
0.0029	0.362	CC(C)(C)OC(=O)N[C@H]1CCCCC/C=C\[C@@H]2C[C@@]2(C(=O)NS(=O)(=O)C2CC2)NC(=O)[C@@H]2C[C@@H](NC(=O)N3CCc4ccccc4C3)CN2C1=O
0.075	2.13	CC(C)(C)OC(=O)N[C@H]1CCCCC/C=C\[C@@H]2C[C@@]2(C(=O)NS(=O)(=O)C2CC2)NC(=O)[C@@H]2C[C@@H](O)CN2C1=O
0.0007	0.0058	CC(C)(C)OC(=O)N[C@H]1CCCCCCC[C@@H]2C[C@@]2(C(=O)NS(=O)(=O)C2CC2)NC(=O)[C@@H]2C[C@@H](OC(=O)N3Cc4cccc(F)c4C3)CN2C1=O
0.001	0.006	O=C(N[C@H]1CCCCC/C=C\[C@@H]2C[C@@]2(C(=O)NS(=O)(=O)C2CC2)NC(=O)[C@@H]2C[C@@H](OC(=O)N3CCc4ccccc4C3)CN2C1=O)OC1CCCC1
0.0097	1.83	CC(C)(C)OC(=O)N[C@H]1CCNCC/C=C\[C@@H]2C[C@@]2(C(=O)NS(=O)(=O)C2CC2)NC(=O)[C@@H]2C[C@@H](OC(=O)N3Cc4cccc(F)c4C3)CN2C1=O
0.2	> 10	C=C[C@@H]1C[C@]1(NC(=O)[C@@H]1C[C@@H](OC(N)=O)CN1C(=O)[C@@H](NC(=O)[C@@H](NC(C)=O)C1CCCCC1)C(C)C)C(=O)O (Ac-[Chg]V[Hyp](Carbamoyl)[Ac3c(1R,2S-2-vinyl)]-OH)
0.195	7.52	CC(C)(C)OC(=O)N[C@H]1CCCCC/C=C\[C@@H]2C[C@@]2(C(=O)O)NC(=O)[C@@H]2C[C@@H](OC(=O)N3Cc4ccc(C(F)(F)F)cc4C3)CN2C1=O
0.0007	0.285	CC(C)(C)OC(=O)N[C@H]1CCCCC/C=C\[C@@H]2C[C@@]2(C(=O)NS(=O)(=O)c2cc(F)ccc2F)NC(=O)[C@@H]2C[C@@H](OC(=O)N3Cc4ccccc4C3)CN2C1=O
0.0042	0.032	CC(C)(C)OC(=O)N[C@H]1CCCCC/C=C\[C@@H]2C[C@@]2(C(=O)NS(=O)(=O)NC2CC2)NC(=O)[C@@H]2C[C@@H](OC(=O)N3Cc4ccccc4C3)CN2C1=O
0.0008	0.013	CC(C)(C)OC(=O)N[C@H]1CCCCC/C=C\[C@@H]2C[C@@]2(C(=O)NS(=O)(=O)C2CC2)NC(=O)[C@@H]2C[C@@H](OC(=O)N3CCc4cccc(C(F)(F)F)c4C3)CN2C1=O
0.003	0.125	CC(C)(C)OC(=O)N[C@H]1CCCCC/C=C\[C@@H]2C[C@@]2(C(=O)NS(=O)(=O)c2ccc(C#N)cc2)NC(=O)[C@@H]2C[C@@H](OC(=O)N3Cc4ccccc4C3)CN2C1=O
